Assay results: patent US20240166664A1, “TRIHETEROCYCLIC COMPOUND, PREPARATION METHOD THEREFOR, AND APPLICATION THEREOF” (SHANGHAI APEIRON THERAPEUTICS COMPANY LIMITED, priority 2021, published 2024)
Where two headings read alike, the source gives them in different places.

Columns and labels:
[1] = tested on: NCI-H1373 cells; experiment: Cell proliferation inhibition assay (CTG method); type: cell-based, human; conditions: Homo sapiens, NCI-H1373, 144 h, read-out: IC50 (nM) for NCI-H1373 cell viability
[2] = biological target: T1, PARP7 (Homo sapiens, UniProt Q7Z3E1); experiment: Test of inhibitory activity against PARP7 enzyme (PARP7 FLAG-tag, Probe A, time-resolved fluorescence); type: biochemical; conditions: PARP7 12 nM, Probe A 2 nM, 1 hr room temperature
T1 construct: purchased BPS 80527
T1 sequence (Q7Z3E1 1-657): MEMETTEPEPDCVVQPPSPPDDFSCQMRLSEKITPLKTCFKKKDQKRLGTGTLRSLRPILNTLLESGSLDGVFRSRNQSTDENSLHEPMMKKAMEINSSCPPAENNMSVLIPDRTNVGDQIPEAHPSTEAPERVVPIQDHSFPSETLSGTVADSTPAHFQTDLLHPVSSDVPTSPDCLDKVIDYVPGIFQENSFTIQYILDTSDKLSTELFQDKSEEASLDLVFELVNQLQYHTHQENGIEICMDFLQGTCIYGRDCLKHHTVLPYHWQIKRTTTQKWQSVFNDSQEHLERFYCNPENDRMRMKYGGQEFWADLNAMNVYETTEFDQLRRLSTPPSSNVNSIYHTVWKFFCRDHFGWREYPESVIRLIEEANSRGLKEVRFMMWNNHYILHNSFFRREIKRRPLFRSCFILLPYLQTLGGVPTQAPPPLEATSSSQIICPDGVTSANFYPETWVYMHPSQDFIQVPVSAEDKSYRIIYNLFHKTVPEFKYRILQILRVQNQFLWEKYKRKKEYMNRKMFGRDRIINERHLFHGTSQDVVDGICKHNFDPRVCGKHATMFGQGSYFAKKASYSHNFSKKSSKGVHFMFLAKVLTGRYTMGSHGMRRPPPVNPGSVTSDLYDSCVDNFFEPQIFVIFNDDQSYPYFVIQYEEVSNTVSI

[3] = NCI-H1373 cells, 6 days incubation, CTG method

SMILES	IC50 [1, 3] [nM]	IC50 [2] [nM]	IC50 [1] [nM]
C[C@@H](COC[C@H](O)C(=O)N1CCN2c3ncc(C(F)(F)F)cc3C=C[C@@H]2C1)Nc1cn[nH]c(=O)c1C(F)(F)F [Compound 71]	< 100	< 10	–
C[C@@H](COCCC(=O)N1CCN2c3ncc(C(F)(F)F)cc3C(=O)OC[C@@H]2C1)Nc1cn[nH]c(=O)c1C(F)(F)F [Compound 4, (S)-9-(3-((S)-2-((6-oxo-5-(trifluoromethyl)-1,6-dihydropyridazin-4-yl)amino)propoxy)propionyl)-3-(trifluoromethyl)-7,7a, 8,9,10,11-hexahydro-5H-pyrazino[2,1-c]pyrido[2,3-e][1,4]oxazin-5-one]	> 5000	< 10	–
C[C@@H](COCCC(=O)N1CCN2c3ncc(C(F)(F)F)cc3C(O)CC2C1)Nc1cn[nH]c(=O)c1C(F)(F)F (stereo partly drawn) [Compound 38]	100 to 500	< 10	–
C[C@@H](COCCC(=O)N1CCN2c3ncc(C(F)(F)F)nc3OCC[C@H]2C1)Nc1cn[nH]c(=O)c1C(F)(F)F [Compound 47, 5-(((S)-1-(3-oxo-3-((S)-3-(trifluoromethyl)-6,7,7a, 8, 10, 11-hexahydro-9H-bipyrazino[2,3-b:1′, 2′-d][1, 4]oxazepane-9-yl)propoxy)prop-2-yl)amino)-4-(trifluoromethyl)pyridazin-3(2H)-one]	< 100	< 10	–
C[C@@H](COCCC(=O)N1CCN2c3ncc(F)cc3COC[C@H]2C1)Nc1cn[nH]c(=O)c1C(F)(F)F [Compound 20, (R)-9-(3-((S)-2-((6-oxo-5-(trifluoromethyl)-1,6-dihydropyridazin-4-yl)amino)propoxy)propionyl)-3-fluoro-7,7a, 8,9,10,11-hexahydro-5H-pyrazino[2,1-c]pyrido[2,3-e][1,4]oxazin-5-one]	> 5000	> 500	–
CC(COCC(O)C(=O)N1CCN2c3ncc(C(F)(F)F)cc3COCC2C1)Nc1cn[nH]c(=O)c1C(F)(F)F (single isomer, unassigned) [Compound 55]	< 100	< 10	–
C[C@@H](COC[C@H](F)C(=O)N1CCN2c3ncc(C(F)(F)F)cc3C=C[C@@H]2C1)Nc1cn[nH]c(=O)c1C(F)(F)F [Compound 74]	< 100	< 10	–
C[C@@H](COCCC(=O)N1CCN2c3ncc(C(F)(F)F)cc3CNC(=O)[C@H]2C1)Nc1cn[nH]c(=O)c1C(F)(F)F [Compound 79, (R)-9-(3-((S)-2-((6-oxo-5-(trifluoromethyl)-1,6-dihydropyridazin-4-yl)amino)propoxy)propionyl)-3-(trifluoromethyl)-5,6,8,9, 10, 11-hexahydropyrazino[1,2-a]pyrido[3,2-f][1, 4]diazepin-7(7aH)-one]	500 to 5000	< 10	–
C[C@@H](COCCC(=O)N1CCN2c3ncc(C(F)(F)F)cc3CSC[C@H]2C1)Nc1cn[nH]c(=O)c1C(F)(F)F [Compound 12, 5-(((S)-1-(3-oxo-3-((R)-3-(trifluoromethyl)-7a, 8,10,11-tetrahydro-5H-pyrazino[2,1-c]pyrido[2,3-e][1,4]thiazin-9(7H)-yl)propoxy)prop-2-yl)amino)-4-(trifluoromethyl)pyridazin-3(2H)-one]	< 100	< 10	–
C[C@@H](COCCC(=O)N1CCN2c3ncc(C(F)(F)F)cc3OC[C@H]2C1)Nc1cn[nH]c(=O)c1C(F)(F)F [Compound 1, 5-(((S)-1-(3-oxo-3-((R)-3-(trifluoromethyl)-6a, 7,9,10-tetrahydropyrazino[1,2-d]pyrido[3,2-b][1,4]oxazin-8(6H)-yl)propoxy)prop-2-yl)amino)-4-(trifluoromethyl)pyridazin-3(2H)-one]	< 100	< 10	–
C[C@@H](COCCC(=O)N1CCN2c3ncc(C(F)(F)F)cc3NC[C@H]2C1)Nc1cn[nH]c(=O)c1C(F)(F)F [Compound 9]	500 to 5000	< 10	–
C[C@@H](COCCC(=O)N1CCN2c3ncc(C(F)(F)F)nc3N(C)C(=O)[C@H]2C1)Nc1cn[nH]c(=O)c1C(F)(F)F [Compound 48, (R)-5-methyl-8-(3-((S)-2-((6-oxo-5-(trifluoromethyl)-1,6-dihydropyridazin-4-yl)amino)propoxy)propionyl)-3-(trifluoromethyl)-7,8,9, 10-tetrahydro-5H-bipyrazino[1,2-a:2′, 3′-e]pyrazin-6(6aH)-one]	< 100	< 10	–
Cc1nc2c(cc1C(F)(F)F)COC[C@H]1CN(C(=O)CCOC[C@H](C)Nc3cn[nH]c(=O)c3C(F)(F)F)CCN21 [Compound 31]	500 to 5000	< 10	–
C[C@@H](COCCC(=O)N1CCN2c3ncc(C(F)(F)F)cc3C(F)(F)C[C@H]2C1)Nc1cn[nH]c(=O)c1C(F)(F)F (single isomer, unassigned) [Compound 63]	500 to 5000	< 10	–
C[C@@H](COCCC(=O)N1CCN2c3ncc(C(F)(F)F)nc3OC[C@@H]2C1)Nc1cn[nH]c(=O)c1C(F)(F)F [Compound 34, 5-(((S)-1-(3-oxo-3-((S)-3-(trifluoromethyl)-6a, 7,9,10-tetrahydrobipyrazino[2,3-b: 1′,2′-d][1,4]oxazin-8(6H)-yl)propoxy)prop-2-yl)amino)-4-(trifluoromethyl)pyridazin-3(2H)-one]	500 to 5000	< 10	–
C[C@@H](COCCC(=O)N1CCN2Cc3ncc(C(F)(F)F)cc3OC[C@@H]2C1)Nc1cn[nH]c(=O)c1C(F)(F)F [Compound 19, 5-(((S)-1-(3-oxo-3-((S)-3-(trifluoromethyl)-6a, 7,9,10-tetrahydro-12H-pyrazino[2,1-c]pyrido[2,3-f][1,4]oxazepin-8(6H)-yl)propoxy)prop-2-yl)amino)-4-(trifluoromethyl)pyridazin-3(2H)-one]	> 5000	100 to 500	–
C[C@@H](COCCC(=O)N1CCN2c3ncc(C(F)(F)F)cc3C[S+]([O-])C[C@H]2C1)Nc1cn[nH]c(=O)c1C(F)(F)F (stereo partly drawn) [Compound 15, 5-(((2S)-1-(3-((7aR)-6-oxo-3-(trifluoromethyl)-7a, 8,10,11-tetrahydro-5H-pyrazino[2,1-c]pyrido[2,3-e][1,4]thiazin-9(7H)-yl)-3-oxopropoxy)prop-2-yl)amino)-4-(trifluoromethyl)pyridazin-3(2H)-one]	500 to 5000	< 10	–
C[C@@H](COCCC(=O)N1CCN2c3ncc(C(F)(F)F)cc3NC(=O)CC2C1)Nc1cn[nH]c(=O)c1C(F)(F)F (single isomer, unassigned) [Compound 84]	> 5000	< 10	–
C[C@@H](COCCC(=O)N1CCN2Cc3ncc(C(F)(F)F)cc3OC[C@H]2C1)Nc1cn[nH]c(=O)c1C(F)(F)F [Compound 18, 5-(((S)-1-(3-oxo-3-((R)-3-(trifluoromethyl)-6a, 7,9,10-tetrahydro-12H-pyrazino[2,1-c]pyrido[2,3-f][1,4]oxazepin-8(6H)-yl)propoxy)prop-2-yl)amino)-4-(trifluoromethyl)pyridazin-3(2H)-one]	> 5000	10 to 100	–
C[C@@H]1CN2c3ncc(C(F)(F)F)cc3COC[C@H]2CN1C(=O)CCOC[C@H](C)Nc1cn[nH]c(=O)c1C(F)(F)F [Compound 25, 5-(((S)-1-(3-((6aR,9R)-9-methyl-3-(trifluoromethyl)-6a, 7,9,10-tetrahydropyrazino[1,2-d]pyrido[3,2-b][1,4]oxazin-8(6H)-yl)-3-oxypropoxy)prop-2-yl)amino)-4-(trifluoromethyl)pyridazin-3(2H)-one]	100 to 500	< 10	–
C[C@@H](COCCC(=O)N1CCN2C(=O)c3ncc(C(F)(F)F)cc3OC[C@H]2C1)Nc1cn[nH]c(=O)c1C(F)(F)F [Compound 16, (R)-8-(3-((S)-2-((6-oxo-5-(trifluoromethyl)-1,6-dihydropyridazin-4-yl)amino)propoxy)propionyl)-3-(trifluoromethyl)-6,6a, 7,8,9,10-hexahydro-12H-pyrazino[2,1-c]pyrido[2,3-f][1,4]oxazepin-12-one]	> 5000	10 to 100	–
C[C@@H](COCCC(=O)N1CCN2c3nc(N)c(C(F)(F)F)cc3COC[C@H]2C1)Nc1cn[nH]c(=O)c1C(F)(F)F [Compound 77, 5-(((S)-1-(3-((R)-2-amino-3-(trifluoromethyl)-7a, 8, 10, 11-tetrahydro-5H-pyrazino[2,1-c]pyrido[2,3-e][1, 4]oxazepane-9(7H)-yl)-3-oxypropoxy)prop-2-yl)amino)-4-(trifluoromethyl)pyridazin-3(2H)-one]	> 5000	< 10	–
CCN1C(=O)[C@@H]2CN(C(=O)CCOC[C@H](C)Nc3cn[nH]c(=O)c3C(F)(F)F)CCN2c2ncc(C(F)(F)F)cc21 [Compound 40, (S)-5-ethyl-8-(3-((S)-2-((6-oxo-5-(trifluoromethyl)-1,6-dihydropyridazin-4-yl)amino)propoxy)propionyl)-3-(trifluoromethyl)-7,8,9,10-tetrahydro-5H-pyrazino[1,2-a]pyrido[3,2-e]pyrazin-6(6aH)-one]	–	< 10	< 100
C[C@@H](COC[C@@H](O)C(=O)N1CCN2c3ncc(C(F)(F)F)cc3C=C[C@@H]2C1)Nc1cn[nH]c(=O)c1C(F)(F)F [Compound 72]	< 100	< 10	–
